Assay results from patent US8106055B2, “Substituted amide compounds” (Gruenenthal GmbH, priority 2007, dated 2012).

What was measured:
human μ opiate receptor = target: T1, human μ opiate receptor (Homo sapiens, UniProt P35372); assay: Affinity for the human μ opiate receptor ([3H]-naloxone displacement, CHO-K1 receptor membrane preparation, SPA); assay type: binding; settings: test concentration of 1 μM; for inhibition at 1 µM: read-out: μ (binding on the μ opioid receptor, % inhibition)
T1 construct: purchased PerkinElmer Life Sciences, Zaventem, Belgium RB-HOM; host or cells: CHO-K1 cells (membrane preparation)
T1 sequence (P35372 whole entry): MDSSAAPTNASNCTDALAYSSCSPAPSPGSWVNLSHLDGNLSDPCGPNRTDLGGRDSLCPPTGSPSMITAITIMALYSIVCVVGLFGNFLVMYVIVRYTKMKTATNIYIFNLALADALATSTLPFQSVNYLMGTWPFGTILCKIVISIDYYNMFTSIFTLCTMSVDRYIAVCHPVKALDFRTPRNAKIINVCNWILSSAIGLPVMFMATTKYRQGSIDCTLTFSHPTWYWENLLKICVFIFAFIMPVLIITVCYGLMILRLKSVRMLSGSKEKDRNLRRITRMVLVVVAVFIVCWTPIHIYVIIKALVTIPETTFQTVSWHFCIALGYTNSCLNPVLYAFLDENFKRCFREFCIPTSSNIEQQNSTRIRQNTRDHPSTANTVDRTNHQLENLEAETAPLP
Method in brief: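 Displacement of 1 nmol/l [3H]-naloxone measured by SPA counting after 90 min at room temperature, using human μ receptor CHO-K1 membrane preparation in Tris-HCl buffer with 0.06% BSA. Test substances at 1 μmol/l give % inhibition; dilution series yield IC50, then Ki (Cheng-Prusoff); non-specific binding with 100 μmol/l naloxone.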

[1] = target: T2, bradykinin 1 receptor (B1R) of the rat (Rattus norvegicus, UniProt P97583); assay: Functional investigation on the rat bradykinin 1 receptor (B1R), Ca2+ FLIPR assay in CHO K1 rB1R cells; assay type: cell-based; settings: test substance 10 μM, Ca2+ FLIPR, CHO K1 rB1R cells; for B1R Ant. r [10 μM] % Inhibition: B1R antagonism rat; for inhibition at 10 µM: CHO-K1, B1R antagonism rat, read-out: B1R Ant. r [10 μM] % Inhibition
T2 construct: expressed in transfected cells; host or cells: CHO K1 cells
T2 sequence (P97583 1-337): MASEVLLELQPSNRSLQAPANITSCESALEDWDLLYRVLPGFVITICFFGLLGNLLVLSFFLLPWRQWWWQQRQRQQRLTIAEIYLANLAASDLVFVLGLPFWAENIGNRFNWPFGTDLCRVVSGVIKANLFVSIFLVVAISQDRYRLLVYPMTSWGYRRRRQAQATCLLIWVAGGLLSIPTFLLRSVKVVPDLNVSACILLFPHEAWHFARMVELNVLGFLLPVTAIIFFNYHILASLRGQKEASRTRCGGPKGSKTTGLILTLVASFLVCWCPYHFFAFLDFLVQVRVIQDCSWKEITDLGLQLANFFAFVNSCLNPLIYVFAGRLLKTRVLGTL
Method in brief: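 Fluo-4 Ca2+ readout, peak fluorescence. Stable CHO K1 transfectants; compound pre-incubated 10-20 min, then EC80 agonist—Lys-Des-Arg9-BK for hB1R, Des-Arg9-BK for rB1R. % inhibition vs maximal inhibition; IC50 from multiple concentrations, duplicate/triplicate, ≥2 independent runs.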

Compound	μ (binding on the μ opioid receptor, % inhibition) (human μ opiate receptor) [%]	B1R Ant. r [10 μM] % Inhibition [1] [%]	inhibition at 1 µM (human μ opiate receptor) [%]	inhibition at 10 µM [1] [%]	μ (binding on the μ opioid receptor, % inhibition) (human μ opiate receptor; 1 µM) [%]
Cc1cc(C)c(S(=O)(=O)N(C)CCOCC(=O)NC2CCC(C(c3ccccc3)N(C)C)CC2)c(C)c1 (stereo not shown) [Example 63, N-(4-((dimethylamino)(phenyl)methyl)cyclohexyl)-2-(2-(N,2,4,6-tetramethylphenylsulfamido)ethoxy)acetamide]	94	8			
COc1ccc(S(=O)(=O)N(C)CCOCC(=O)NC2CCC(C(c3ccc(F)cc3)N(C)C)CC2)cc1OC (stereo not shown) [Example 548]	26	11			
CN(C)C(c1ccccc1)C1CCC(CNC(=O)COCCN(C)S(=O)(=O)c2ccc(Cl)cc2)CC1 (stereo not shown) [Example 110, 2-(2-(4-chloro-N-methylphenylsulfonamido)ethoxy)-N-((4-((dimethylamino) (phenyl)methyl)cyclohexyl)methyl)acetamide]			87	10	
CN(C)C(c1cccs1)C1CCC(CCNC(=O)COCCN(Cc2ccccc2)S(=O)(=O)c2ccccc2)CC1 (stereo not shown) [Example 116, 2-(2-(N-benzylphenylsulfonamido)ethoxy)-N-(2-(4-((dimethylamino)(thiophen-2-yl)methyl)cyclohexyl)ethyl)acetamide]			91	14	
COc1cc(C)c(S(=O)(=O)N2CCC(OCC(=O)NCC3CCC(C(CCc4ccccc4)N(C)C)CC3)C2)c(C)c1 (stereo not shown) [Example 565]	20	104			
COc1ccc(S(=O)(=O)N2CCCCC2COCC(=O)NCC2CCC(C(c3cccs3)N(C)C)CC2)cc1OC (stereo not shown) [Example 133, 2-((1-(3,4-Dimethoxyphenylsulfonyl)piperidin-2-yl)methoxy)-N-((4-((dimethylamino)(thiophen-2-yl)methyl)cyclohexyl)methyl)acetamide]			89	7	
COc1ccc(S(=O)(=O)N2CCCCC2COCC(=O)NC2CCC(C(c3ccc(F)cc3)N(C)C)CC2)cc1OC (stereo not shown) [Example 555]	23	0			
CN(C)C(c1ccc(F)cc1)C1CCC(CCNC(=O)COCCN(C)S(=O)(=O)c2ccc(Cl)cc2Cl)CC1 (stereo not shown) [Example 586]	3	76			
CN(C)C(CCc1ccccc1)C1CCC(CNC(=O)COCC2CCCN(S(=O)(=O)c3ccccc3)C2)CC1 (stereo not shown) [Example 544]	24	38			
CN(C)C(c1ccc(F)cc1)C1CCC(CCNC(=O)COC2CCN(S(=O)(=O)c3ccccc3)CC2)CC1 (stereo not shown) [Example 553]	26	−14			
COc1cc(C)c(S(=O)(=O)N2CCC(OCC(=O)NCC3CCC(C(c4cccs4)N(C)C)CC3)CC2)c(C)c1C (stereo not shown) [Example 104, N-((4-((dimethylamino)(thiophen-2-yl)methyl)cyclohexyl)methyl)-2-(1-(4-methoxy-2,3,6-trimethylphenylsulfonyl)piperidin-4-yloxy)acetamide]			90	-10	
CN(C)C(c1cccc(F)c1)C1CCC(CCNC(=O)COCCC2CCN(S(=O)(=O)c3ccccc3)CC2)CC1 (stereo not shown) [Example 543]	29	15			
CN(C)C(c1cccc(F)c1)C1CCC(NC(=O)COC2CCCCC2N(C)S(=O)(=O)c2ccc(Cl)c(Cl)c2)CC1 (stereo not shown) [Example 132, 2-(2-(3,4-dichloro-N-methylphenylsulfonamido)cyclohexyloxy)-N-(4-((dimethylamino)(3-fluorophenyl)methyl)cyclohexyl)acetamide]			91	2	
CN(C)C(CCc1ccccc1)C1CCC(CNC(=O)COCCN(C)S(=O)(=O)c2ccc(OC(F)(F)F)cc2)CC1 (stereo not shown) [Example 567]	23	42			
CN(C)C(c1cccs1)C1CCC(CNC(=O)COCCN(Cc2ccccc2)S(=O)(=O)c2ccccc2)CC1 (stereo not shown) [Example 102, 2-(2-(N-benzylphenylsulfonamido)ethoxy)-N-((4-((dimethylamino)(thiophen-2-yl)methyl)cyclohexyl)methyl)acetamide]			94	-12	
COc1cc(C)c(S(=O)(=O)N2CCC(OCC(=O)NC3CCC(C(c4cccs4)N(C)C)CC3)C2)c(C)c1 (stereo not shown) [Example 98, N-(4-((dimethylamino)(thiophen-2-yl)methyl)cyclohexyl)-2-(1-(4-methoxy-2,6-dimethylphenylsulfonyl)pyrrolidin-3-yloxy)acetamide]			91	69	
CN(C)C(c1ccc(Cl)cc1)C1CCC(CCNC(=O)COCCN(C)S(=O)(=O)c2ccc(OC(F)(F)F)cc2)CC1 (stereo not shown) [Example 575]	11	26			
CN(C)C(c1ccc(F)cc1)C1CCC(CNC(=O)COC2CCN(S(=O)(=O)c3ccccc3)CC2)CC1 (stereo not shown) [Example 568]	11	12			
COc1cc(C)c(S(=O)(=O)N2CCC(CCOCC(=O)NCC3CCC(C(c4cccs4)N(C)C)CC3)CC2)c(C)c1C (stereo not shown) [Example 131, N-((4-((dimethylamino)(thiophen-2-yl)methyl)cyclohexyl)methyl)-2-(2-(1-(4-methoxy-2,3,6-trimethylphenylsulfonyl)piperidin-4-yl)ethoxy)acetamide]			86	-20	
CN(C)C(CCc1ccccc1)C1CCC(CNC(=O)COC2CCN(S(=O)(=O)c3ccccc3)C2)CC1 (stereo not shown) [Example 573]	23	14			
COc1ccc(S(=O)(=O)N(C)CCOCC(=O)NCC2CCC(C(c3cccs3)N(C)C)CC2)cc1OC (stereo not shown) [Example 127, 2-(2-(3,4-Dimethoxy-N-methylphenylsulfonamido)ethoxy)-N-((4-((dimethylamino)(thiophen-2-yl)methyl)cyclohexyl)methyl)acetamide]			87	21	
COc1cc(C)c(S(=O)(=O)N2CCCC(OCC(=O)NCC3CCC(C(CCc4ccccc4)N(C)C)CC3)C2)c(C)c1C (stereo not shown) [Example 551]	35	36			
CN(C)C(c1cccs1)C1CCC(CCNC(=O)COC2CCCN(S(=O)(=O)c3ccccc3)C2)CC1 (stereo not shown) [Example 100, N-(2-(4-((dimethylamino)(thiophen-2-yl)methyl)cyclohexyl)ethyl)-2-(1-(phenylsulfonyl)piperidin-3-yloxy)acetamide]			94	27	
COc1ccc(S(=O)(=O)N(C)CCOCC(=O)NCCC2CCC(C(c3cccs3)N(C)C)CC2)cc1 (stereo not shown) [Example 128, N-(2-(4-((dimethylamino)(thiophen-2-yl)methyl)cyclohexyl)ethyl)-2-(2-(4-methoxy-N-methylphenylsulfonamido)ethoxy)acetamide]			91	46	
COc1ccc(S(=O)(=O)N2CCCCC2COCC(=O)NCC2CCC(C(CCc3ccccc3)N(C)C)CC2)cc1OC (stereo not shown) [Example 570]		4			16
CCN(CCOCC(=O)NCCC1CCC(C(c2cccs2)N(C)C)CC1)S(=O)(=O)c1c(C)cc(OC)c(C)c1C (stereo not shown) [Example 103, N-(2-(4-((dimethylamino)(thiophen-2-yl)methyl)cyclohexyl)ethyl)-2-(2-(N-ethyl-4-methoxy-2,3,6-trimethylphenylsulfonamido)ethoxy)acetamide]			94	84	
COc1cc(C)c(S(=O)(=O)N2CCC(CCOCC(=O)NC3CCC(C(c4cccc(F)c4)N(C)C)CC3)CC2)c(C)c1C (stereo not shown) [Example 118, N-(4-((dimethylamino)(3-fluorophenyl)methyl)cyclohexyl)-2-(2-(1-(4-methoxy-2,3,6-trimethylphenylsulfonyl)piperidin-4-yl)ethoxy)acetamide]			90	-4	
CN(C)C(c1cccs1)C1CCC(CCNC(=O)COC2CCN(S(=O)(=O)c3cccc(C(F)(F)F)c3)C2)CC1 (stereo not shown) [Example 96, N-(2-(4-((dimethylamino)(thiophen-2-yl)methyl)cyclohexyl)ethyl)-2-(1-(3-(trifluoromethyl)phenylsulfonyl)pyrrolidin-3-yloxy)acetamide]			92	26	
COc1ccc(S(=O)(=O)N2CCCCC2COCC(=O)NCCC2CCC(C(c3cccc(F)c3)N(C)C)CC2)cc1OC (stereo not shown) [Example 581]		8			9
